Measured values: ChEMBL document CHEMBL1201862, “PubChem BioAssay data set” (2004)
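Five compound concentrations were applied to cells in 96-well plates for 48 hours; endpoints were derived by simple linear interpolation of the resulting dose-response curve. GI50 marks 50% less growth.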 Calls of active or inactive are those of the source. No stated cut-off is given here; in the data, active = GI50 up to about 1.1 µM and inactive = higher.

Tests used:
Assay in all cases: NCI tumour cell line growth inhibition, 48 h
ACHN = tested on: ACHN
T47D = tested on: T47D
HT-29 = tested on: HT-29
A498 = tested on: A498
SR = tested on: SR
SF-295 = tested on: SF-295
786-0 = tested on: 786-0
NCI-H460 = tested on: NCI-H460
SNB-75 = tested on: SNB-75
NCI-H23 = tested on: NCI-H23
MDA-N = tested on: MDA-N
BT-549 = tested on: BT-549
K562 = tested on: K562
TK-10 = tested on: TK-10
LOX IMVI = tested on: LOX IMVI
SK-MEL-2 = tested on: SK-MEL-2
MCF7 = tested on: MCF7
UACC-257 = tested on: UACC-257
MDA-MB-435 = tested on: MDA-MB-435
OVCAR-5 = tested on: OVCAR-5

SMILES	GI50 (ACHN)	GI50 (T47D)	GI50 (HT-29)	GI50 (A498)	GI50 (SR)	GI50 (SF-295)	GI50 (786-0)	GI50 (NCI-H460)	GI50 (SNB-75)	GI50 (NCI-H23)	GI50 (MDA-N)	GI50 (BT-549)	GI50 (K562)	GI50 (TK-10)	GI50 (LOX IMVI)	GI50 (SK-MEL-2)	GI50 (MCF7)	GI50 (UACC-257)	GI50 (MDA-MB-435)	GI50 (OVCAR-5)
CNC(=O)/C(=C/c1ccc(OC)cc1)c1cc(OC)c(OC)c(OC)c1	8.65 µM (inactive)	> 100 µM (inactive)	0.593 µM (active)	3.51 µM (inactive)	0.513 µM (active)	0.552 µM (active)	3.47 µM (inactive)	1.47 µM (inactive)	1.14 µM (inactive)	3.52 µM (inactive)	0.206 µM (active)	50.8 µM (inactive)	0.546 µM (active)	> 44.1 µM (inactive)	4.88 µM (inactive)	3.89 µM (inactive)	0.769 µM (active)	5.08 µM (inactive)	0.281 µM (active)	20.7 µM (inactive)
COc1c2c(cc3oc(C)cc(=O)c13)OC(=N)C(C(N)=O)C2CC(=O)c1ccc(N)cc1 (centres undefined)	> 100 µM (inactive)	> 100 µM (inactive)	–	> 100 µM (inactive)	> 100 µM (inactive)	> 100 µM (inactive)	> 100 µM (inactive)	> 100 µM (inactive)	> 100 µM (inactive)	–	> 100 µM (inactive)	> 100 µM (inactive)	> 100 µM (inactive)	> 100 µM (inactive)	> 100 µM (inactive)	> 100 µM (inactive)	> 100 µM (inactive)	> 100 µM (inactive)	> 100 µM (inactive)	> 100 µM (inactive)
Oc1nc2c(c(-c3ccc(F)cc3)n1)COC/C2=C\c1ccc(F)cc1	> 100 µM (inactive)	> 100 µM (inactive)	–	> 100 µM (inactive)	> 100 µM (inactive)	> 100 µM (inactive)	> 100 µM (inactive)	> 100 µM (inactive)	> 100 µM (inactive)	> 100 µM (inactive)	> 100 µM (inactive)	> 100 µM (inactive)	> 100 µM (inactive)	> 100 µM (inactive)	> 100 µM (inactive)	> 100 µM (inactive)	> 100 µM (inactive)	> 100 µM (inactive)	> 100 µM (inactive)	> 100 µM (inactive)
COc1ccc2c(c1)-c1nc(=S)n(CCN(C)C)c3ccc([N+](=O)[O-])c(c13)N2	0.345 µM (active)	4.81 µM (inactive)	0.498 µM (active)	8.13 µM (inactive)	0.419 µM (active)	0.794 µM (active)	0.462 µM (active)	0.365 µM (active)	1.3 µM (inactive)	1.16 µM (inactive)	0.948 µM (active)	10.3 µM (inactive)	0.389 µM (active)	1.07 µM (active)	0.738 µM (active)	7.31 µM (inactive)	0.861 µM (active)	1 µM (active)	2.1 µM (inactive)	3.13 µM (inactive)
COc1ccc2c(c1)-c1c(c3cc(OC)ccc3n1CCCN(C)C)CC2	14.3 µM (inactive)	5.36 µM (inactive)	2.81 µM (inactive)	13.4 µM (inactive)	5.18 µM (inactive)	2.62 µM (inactive)	9.04 µM (inactive)	10.1 µM (inactive)	2.99 µM (inactive)	16.8 µM (inactive)	4.79 µM (inactive)	15.5 µM (inactive)	4.3 µM (inactive)	16.5 µM (inactive)	4.06 µM (inactive)	15.8 µM (inactive)	7.83 µM (inactive)	3.48 µM (inactive)	5.55 µM (inactive)	13.8 µM (inactive)
Cc1nc(O)nc2nc3ccc(Cl)cc3c(NC(C)(CO)CO)c12	39 µM (inactive)	17.6 µM (inactive)	> 100 µM (inactive)	> 100 µM (inactive)	99.8 µM (inactive)	66.5 µM (inactive)	> 57.4 µM (inactive)	> 71.1 µM (inactive)	24.2 µM (inactive)	63.5 µM (inactive)	99.1 µM (inactive)	62.8 µM (inactive)	> 100 µM (inactive)	41.4 µM (inactive)	55.6 µM (inactive)	> 100 µM (inactive)	> 68.4 µM (inactive)	> 75.3 µM (inactive)	> 100 µM (inactive)	> 100 µM (inactive)
CCc1ccc(Nc2cc(=O)n(C)c(SCc3ccccc3)n2)cc1	75.3 µM (inactive)	95.3 µM (inactive)	21.9 µM (inactive)	14.5 µM (inactive)	35.7 µM (inactive)	57.4 µM (inactive)	17.5 µM (inactive)	–	> 100 µM (inactive)	> 100 µM (inactive)	> 100 µM (inactive)	> 100 µM (inactive)	> 100 µM (inactive)	> 100 µM (inactive)	33 µM (inactive)	> 100 µM (inactive)	28.6 µM (inactive)	> 100 µM (inactive)	80.4 µM (inactive)	30.8 µM (inactive)
O=C(O)COc1cc(-c2ccccc2)nc2cc(F)ccc12	> 100 µM (inactive)	> 100 µM (inactive)	> 100 µM (inactive)	> 100 µM (inactive)	> 100 µM (inactive)	> 100 µM (inactive)	> 100 µM (inactive)	> 100 µM (inactive)	> 100 µM (inactive)	> 100 µM (inactive)	> 100 µM (inactive)	> 100 µM (inactive)	> 100 µM (inactive)	0.375 µM (active)	> 100 µM (inactive)	> 100 µM (inactive)	> 100 µM (inactive)	> 100 µM (inactive)	> 100 µM (inactive)	> 100 µM (inactive)
CCOC(=O)c1c(Br)c(-c2ccc(Br)cc2)c(Br)n1C	23.4 µM (inactive)	10.5 µM (inactive)	11.7 µM (inactive)	18.2 µM (inactive)	3.22 µM (inactive)	17.9 µM (inactive)	20.5 µM (inactive)	28.4 µM (inactive)	3.18 µM (inactive)	22.7 µM (inactive)	3.4 µM (inactive)	14.5 µM (inactive)	5.08 µM (inactive)	39 µM (inactive)	7.16 µM (inactive)	> 10 µM (inactive)	22.8 µM (inactive)	20.7 µM (inactive)	3.15 µM (inactive)	19.4 µM (inactive)
CC(C)(C(=O)N(C(=O)N1CCN(c2ccccc2)CC1)S(=O)(=O)c1ccccc1)c1ccc(Cl)cc1	19.5 µM (inactive)	29.2 µM (inactive)	21.4 µM (inactive)	18.6 µM (inactive)	22.8 µM (inactive)	8.63 µM (inactive)	55.2 µM (inactive)	28.8 µM (inactive)	77.1 µM (inactive)	16.3 µM (inactive)	41.5 µM (inactive)	30.7 µM (inactive)	5.68 µM (inactive)	61.4 µM (inactive)	46.8 µM (inactive)	21.3 µM (inactive)	4.33 µM (inactive)	46.7 µM (inactive)	51.2 µM (inactive)	42.2 µM (inactive)
Cc1nc2cc([N+](=O)[O-])ccc2c(NCCCN(C)C)c1C	20 µM (inactive)	4.09 µM (inactive)	2.76 µM (inactive)	14.9 µM (inactive)	4.45 µM (inactive)	17.3 µM (inactive)	10.4 µM (inactive)	3.18 µM (inactive)	20.7 µM (inactive)	4.03 µM (inactive)	14.8 µM (inactive)	11.8 µM (inactive)	3.77 µM (inactive)	23.5 µM (inactive)	11 µM (inactive)	10.5 µM (inactive)	2.94 µM (inactive)	5.45 µM (inactive)	15.6 µM (inactive)	13.2 µM (inactive)
O=C(Nc1noc(-c2ccccc2)n1)c1ccccc1CNc1noc(-c2ccccc2)n1	> 100 µM (inactive)	> 100 µM (inactive)	> 100 µM (inactive)	> 100 µM (inactive)	> 100 µM (inactive)	> 100 µM (inactive)	> 100 µM (inactive)	> 100 µM (inactive)	> 100 µM (inactive)	> 100 µM (inactive)	> 100 µM (inactive)	> 100 µM (inactive)	> 100 µM (inactive)	> 100 µM (inactive)	> 100 µM (inactive)	–	> 100 µM (inactive)	> 100 µM (inactive)	> 100 µM (inactive)	> 100 µM (inactive)
COCC(=O)OC1CCn2c1nc1c2C(=O)C(C)=C(NC(C)=O)C1=O (centres undefined)	8.91 µM (inactive)	0.787 µM (active)	9.93 µM (inactive)	27.9 µM (inactive)	1.94 µM (inactive)	16.3 µM (inactive)	6.73 µM (inactive)	17.5 µM (inactive)	5.42 µM (inactive)	7.85 µM (inactive)	1.85 µM (inactive)	11.7 µM (inactive)	2.79 µM (inactive)	18.2 µM (inactive)	4.34 µM (inactive)	4.04 µM (inactive)	1.84 µM (inactive)	3.97 µM (inactive)	1.89 µM (inactive)	8.57 µM (inactive)
CCOc1ccncc1[N+](=O)[O-]	> 100 µM (inactive)	> 100 µM (inactive)	> 100 µM (inactive)	> 100 µM (inactive)	> 100 µM (inactive)	> 100 µM (inactive)	> 100 µM (inactive)	–	> 100 µM (inactive)	> 100 µM (inactive)	> 100 µM (inactive)	> 100 µM (inactive)	> 100 µM (inactive)	> 100 µM (inactive)	> 100 µM (inactive)	> 100 µM (inactive)	> 100 µM (inactive)	> 100 µM (inactive)	> 100 µM (inactive)	> 100 µM (inactive)
